In data set [1] the test system is clone of Th2 lymphocytes (D10.G4.1).
Method: Cell toxicity tests were carried out on a clone of Th2 lymphocytes (D10.G4.1) through flow cytometry using Propidium Iodide in order to determine cell death.
After this time, the cells were washed and incubated with 5 μg/ml of Propidium Iodide during 1 min. The samples treated in this way were analysed by cytometry using BD FACSCanto™ equipment.
Data set [2] addresses T1, complete enzyme of PDE4D2 (aa. 1-507) (Homo sapiens, UniProt Q08499).
T1 construct: the complete enzyme of PDE4D2 (aa. 1-507); made in house; host or cells: E. coli BL21
The data set is described as follows: PDE inhibitor test, PDE4D2 (3H-cAMP hydrolysis). In kind it is biochemical. The note with it: substrate at 1/10 of KM; six inhibitor concentrations; duplicate; read-out: Inhibitor data of PDE4D2 (CI50). The procedure:
The catalytic domain of PDE7A1 (aá. 130-482) and the complete enzyme of PDE4D2 (aa. 1-507) were subcloned in pET vectors, overexpressed in E. coli strain BL21, and purified to homogeneity as described in the bibliography (Wang, H., Liu, Y., Chen, Y., Robinson, H., and Ke, H. Multiple elements jointly determine inhibitor selectivity of cyclic nucleotide phosphodiesterases 4 and 7. J. Biol. Chem. 2005, 280, 30949-30955). The enzymatic activities of PDE7A1 and PDE4D2 were tested through incubation of the enzymes with 100 μL of a reaction mixture that contained 50 mM Tris.HCl (pH 8.5), 50 mM MgCl2, 5 mM DTT, and ^3H-cAMP (20000 cpm per test, Sigma-Aldrich) at room temperature during 10 minutes. The reactions were concluded by adding 200 μL 0.2 M ZnSO4 when 20-50% of the cAMP was hydrolysed. The product of the reaction, ^3H-AMP, was precipitated by adding 200 μL 0.25 M Ba(OH)2 (Sigma-Aldrich), while the unreacted ^3H-AMPc remained in the supernatant. Radioactivity of the supernatant was measured with a mixture of scintillation liquid (ScintiSafe PlusTM 50%, Fisher Scientific) using the counter LKB RackBeta 1214.
For inhibitor measurements, six concentrations of inhibitors were used in the presence of a substrate concentration equivalent to 1/10 of the KM and the enzyme concentration that hydrolyses 50% of the substrate. […] All experiments were carried out in duplicate.

The subject of another data set is T-lymphocytes. The data set is described as follows: Study of intracellular cAMP levels (cAMP Biotrak Enzymeimmunoassay). In kind it is cell-based. The settings on record: inhibitor alone (FIG. 5). The procedure:
PDE inhibition has the direct effect of increasing cAMP, since their degradation is prevented. In order to verify this effect on the cell system of T-lymphocytes two compounds of formula (I) of the invention were chosen, specifically: TC 3.6 and TC 3.14 and cAMP concentration was measured using the cAMP Biotrak Enzymeimmunoassay System of Amersham Biosciences kit.

Data set [3] has as its target T2, catalytic domain of PDE7A1 (aa. 130-482) (Homo sapiens, UniProt Q13946).
T2 construct: The catalytic domain of PDE7A1 (aá. 130-482); made in house; host or cells: E. coli BL21
The data set can be described thus: PDE inhibitor test, PDE7A1 (3H-cAMP hydrolysis). The format is biochemical. The settings on record: substrate at 1/10 of KM; six inhibitor concentrations; duplicate; read-out: Inhibitor data of PDE7A1 (CI50).

The mark [4] stands for this setting: D10.G4.1 cells, 1×10^6 cells/ml, 48 h.

Like-named read-outs stand apart in the source and are kept apart here.

T2 sequence (Q13946 130-482): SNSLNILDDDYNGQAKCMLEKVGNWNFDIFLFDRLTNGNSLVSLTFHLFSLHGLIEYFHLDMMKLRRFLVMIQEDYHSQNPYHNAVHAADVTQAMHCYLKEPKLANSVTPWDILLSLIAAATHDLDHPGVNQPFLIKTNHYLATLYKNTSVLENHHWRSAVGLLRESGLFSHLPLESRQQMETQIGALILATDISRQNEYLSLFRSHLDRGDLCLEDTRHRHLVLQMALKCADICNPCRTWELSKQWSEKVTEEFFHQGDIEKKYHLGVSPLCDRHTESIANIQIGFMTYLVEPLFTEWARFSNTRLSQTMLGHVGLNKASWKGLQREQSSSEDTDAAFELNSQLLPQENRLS
T1 sequence (Q08499 303-809): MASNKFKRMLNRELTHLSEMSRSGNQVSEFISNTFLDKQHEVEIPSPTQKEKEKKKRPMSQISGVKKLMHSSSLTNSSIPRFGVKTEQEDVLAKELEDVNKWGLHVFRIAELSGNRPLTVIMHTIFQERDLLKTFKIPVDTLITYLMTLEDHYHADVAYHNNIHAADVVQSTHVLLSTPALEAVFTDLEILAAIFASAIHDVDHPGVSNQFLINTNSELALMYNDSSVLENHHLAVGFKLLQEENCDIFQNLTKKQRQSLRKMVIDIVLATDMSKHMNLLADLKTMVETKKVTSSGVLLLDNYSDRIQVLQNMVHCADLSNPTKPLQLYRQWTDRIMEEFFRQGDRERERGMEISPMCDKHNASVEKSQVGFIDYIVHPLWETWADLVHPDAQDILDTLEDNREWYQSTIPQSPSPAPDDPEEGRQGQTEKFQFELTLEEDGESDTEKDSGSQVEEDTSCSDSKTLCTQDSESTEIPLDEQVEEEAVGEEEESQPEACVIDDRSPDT

As to “3-(2,6-difluorophenyl)-2-methylthio-4-thioxo-3,4-dihydroquinazoline [TC2.43]”, the “maximum concentration at which more than 80% cellular viability was maintained in comparison to the control of cells without inhibitor” value in data set [1] (setting [4]) amounted to 5 µM.

`S=c1[nH]c2ccccc2c(=S)n1-c1ccccc1` [TC3.6, 3-Phenyl-2,4-dithioxo-1,2,3,4-tetrahydroquinazoline]: the IC50 turned out to be 5700 ± 30 nM in data set [2] and 1040 ± 80 nM in data set [3]. In data set [1] (D10.G4.1 cells, 48 h, among the compounds of new synthesis), the “cell toxicity (in words)” value was “most moderate toxicity”. Also, the “maximum concentration at which more than 80% cellular viability was maintained in comparison to the control of cells without inhibitor” value in data set [1] (mouse, 48 h) worked out at 1000 µM. Further, the “amount of intracellular cAMP in relation to the control” value in the data set with T-lymphocytes was “increased in a statistically significant manner”.

On to `Fc1ccc(-n2c(=S)[nH]c3ccccc3c2=S)c(F)c1F` [TC2.45, 3-(2,3,4-Trifluorophenyl)-2,4-dithioxo-1,2,3,4-tetrahydroquinazoline], for which the IC50 in data set [3] is greater than 1000 nM.

On to `CSc1nc2ccc(Br)cc2c(=O)n1-c1ccccc1` [TC3.47A, 6-Bromo-3-phenyl-2-methylthio-4-oxo-3,4-dihydroquinazoline], for which the IC50 in data set [3] is greater than 1000 nM.

In the case of `CSc1nc2c(C)cccc2c(=O)n1-c1ccccc1Br` [TC3.22, 3-(2-Bromophenyl)-8-methyl-2-methylthio-4-oxo-3,4-dihydroquinazoline], the IC50 is 1100 ± 200 nM in data set [2] and 270 ± 20 nM in data set [3]. The “maximum concentration at which more than 80% cellular viability was maintained in comparison to the control of cells without inhibitor” value in data set [1] (mouse, 48 h) worked out at 5 µM.

As to `CSc1nc2c(C)cccc2c(=O)n1-c1ccccc1` [TC3.15b, 3-Phenyl-8-methyl-2-methylthio-4-oxo-3,4-dihydroquinazoline], the “cell toxicity (in words)” value in data set [1] is listed as “most moderate toxicity”. Besides, the “maximum concentration at which more than 80% cellular viability was maintained in comparison to the control of cells without inhibitor” value in data set [1] (mouse, 48 h) worked out at 600 µM. Moreover, the IC50 in data set [3] is roughly 1000 nM.

Consider `Fc1cccc(F)c1-n1c(=S)[nH]c2ccccc2c1=S` [TC2.49, 3-(2,6-Difluorophenyl)-2,4-dithioxo-1,2,3,4-tetrahydroquinazoline], for which the “maximum concentration at which more than 80% cellular viability was maintained in comparison to the control of cells without inhibitor” value in data set [1] (mouse, 48 h) turned out to be 50 µM. Also, in data set [3], the IC50 is roughly 1000 nM.

Take `COc1ccc(C2CNC(=O)C2)cc1OC1CCCC1` (stereo not drawn) [Rolipram, reference compound]: the “maximum concentration at which more than 80% cellular viability was maintained in comparison to the control of cells without inhibitor” value in data set [1] (setting [4]) is greater than 1000 µM.

Regarding `CSc1nc2c(C)cccc2c(=O)n1-c1c(F)cccc1F` [TC3.23, 3-(2,6-Difluorophenyl)-8-methyl-2-methylthio-4-oxo-3,4-dihydroquinazoline], the IC50 in data set [2] turned out to be 1400 ± 200 nM; in data set [3] it was 130 ± 20 nM. In data set [1] (mouse, 48 h), the “maximum concentration at which more than 80% cellular viability was maintained in comparison to the control of cells without inhibitor” value was found to be 10 µM.

Regarding `O=c1c2cc(Br)ccc2[nH]c(=S)n1-c1ccccc1` [TC2.30A, 6-Bromo-3-phenyl-4-oxo-2-thioxo-1,2,3,4-tetrahydroquinazoline], the IC50 in data set [3] is greater than 10000 nM.

Consider `CSc1nc2ccc(Br)cc2c(=O)n1-c1ccccc1Br` [TC3.35, 6-Bromo-3-(2-bromophenyl)-2-methylthio-4-oxo-3,4-dihydroquinazoline], for which the “maximum concentration at which more than 80% cellular viability was maintained in comparison to the control of cells without inhibitor” value in data set [1] (mouse, 48 h) is 10 µM. Besides, the IC50 in data set [3] was found to be 1860 ± 180 nM.

On to `O=c1c2cc(Br)ccc2[nH]c(=S)n1-c1c(F)cccc1F` [TC3.29, 6-Bromo-3-(2,6-difluorophenyl)-4-oxo-2-thioxo-1,2,3,4-tetrahydroquinazoline], for which the IC50 in data set [3] was greater than 10000 nM.

Turning to `CSc1nc2ccc(Br)cc2c(=O)n1-c1ccc(F)c(F)c1F` [TC3.32, 6-Bromo-3-(2,3,4-trifluorophenyl)-2-methylthio-4-oxo-3,4-dihydroquinazoline], the “maximum concentration at which more than 80% cellular viability was maintained in comparison to the control of cells without inhibitor” value in data set [1] (mouse, 48 h) was determined as 100 µM. For the same molecule, the IC50 in data set [3] was 2100 ± 100 nM.

On to `Cc1cccc2c(=O)n(-c3c(F)cccc3F)c(=S)[nH]c12` [TC3.16, 3-(2,6-Difluorophenyl)-8-methyl-4-oxo-2-thioxo-1,2,3,4-tetrahydroquinazoline], for which the IC50 in data set [3] was greater than 1000 nM.

`CSc1nc2ccccc2c(=S)n1-c1ccc(F)c(F)c1F` [TC2.51, 3-(2,3,4-trifluorophenyl)-2-methylthio-4-thioxo-3,4-dihydroquinazoline]: the IC50 in data set [3] is greater than 1000 nM.

For `CSc1nc2ccccc2c(=S)n1-c1c(F)cccc1F` [TC3.1, 3-(2,6-difluorophenyl)-2-methylthio-4-thioxo-3,4-dihydroquinazoline], the “maximum concentration at which more than 80% cellular viability was maintained in comparison to the control of cells without inhibitor” value in data set [1] (mouse, 48 h) stood at 10 µM. Further, the IC50 in data set [3] is 100 to 1000 nM.

Consider `Cc1cccc2c(=O)n(-c3ccccc3Br)c(=S)[nH]c12` [TC3.14, 3-(2-Bromophenyl)-8-methyl-4-oxo-2-thioxo-1,2,3,4-tetrahydroquinazoline], for which the IC50 is 34000 ± 5000 nM in data set [2] and 1700 ± 100 nM in data set [3]. The “cell toxicity (in words)” value in data set [1] is on record as “most moderate toxicity”. The “maximum concentration at which more than 80% cellular viability was maintained in comparison to the control of cells without inhibitor” value in data set [1] (mouse, 48 h) stood at 600 µM. Further, in the data set on T-lymphocytes, the “amount of intracellular cAMP in relation to the control” value is listed as “increased in a statistically significant manner”.

Turning to `CSc1nc2ccc(Br)cc2c(=O)n1-c1c(F)cccc1F` [TC3.36, 6-Bromo-3-(2,6-difluorophenyl)-2-methylthio-4-oxo-3,4-dihydroquinazoline], the IC50 in data set [2] worked out at 4500 ± 100 nM; in data set [3], 240 ± 30 nM. The “maximum concentration at which more than 80% cellular viability was maintained in comparison to the control of cells without inhibitor” value in data set [1] (mouse, 48 h) worked out at 10 µM.

Consider `O=c1c2cc(Br)ccc2[nH]c(=S)n1-c1ccccc1Br` [TC3.28, 6-Bromo-3-(2-bromophenyl)-4-oxo-2-thioxo-1,2,3,4-tetrahydroquinazoline], for which, in data set [3], the IC50 is roughly 10000 nM.

Turning to `Cc1cccc2c(=O)n(-c3ccc(F)c(F)c3F)c(=S)[nH]c12` [TC3.17, 3-(2,3,4-Trifluorophenyl)-8-methyl-4-oxo-2-thioxo-1,2,3,4-tetrahydroquinazoline], the IC50 in data set [3] was greater than 10000 nM.

With `CSc1nc2c(C)cccc2c(=O)n1-c1ccc(F)c(F)c1F` [TC3.24, 3-(2,3,4-Trifluorophenyl)-8-methyl-2-methylthio-4-oxo-3,4-dihydroquinazoline], in data set [3], the IC50 was greater than 1000 nM.

Take `Cc1ccc([N+](=O)[O-])cc1S(=O)(=O)N(C)C` [BRL50481, 3-(N,N-dimethylsulfonamide)-4-methyl-nitrobenzene, reference compound]: in data set [1] (setting [4]), the “maximum concentration at which more than 80% cellular viability was maintained in comparison to the control of cells without inhibitor” value is greater than 1000 µM.

On to `O=c1c2cc(Br)ccc2[nH]c(=S)n1-c1ccc(F)c(F)c1F` [TC3.30, 6-Bromo-3-(2,3,4-trifluorophenyl)-4-oxo-2-thioxo-1,2,3,4-tetrahydroquinazoline], for which the IC50 in data set [3] was greater than 10000 nM.

In the case of `CSc1nc2ccccc2c(=S)n1-c1ccccc1` [TC3.9, 3-Phenyl-2-methylthio-4-thioxo-3,4-dihydroquinazoline], the results for the IC50 in data set [2] and in data set [3] were 8000 ± 1200 nM and 840 ± 10 nM, respectively. In data set [1] (mouse, 48 h), the “maximum concentration at which more than 80% cellular viability was maintained in comparison to the control of cells without inhibitor” value turned out to be 100 µM.

Regarding `CSc1nc2ccccc2c(=S)n1-c1ccccc1Br` [TC3.13, 3-(2-bromophenyl)-2-methylthio-4-thioxo-3,4-dihydroquinazoline], in data set [1] (mouse, 48 h), the “maximum concentration at which more than 80% cellular viability was maintained in comparison to the control of cells without inhibitor” value was 10 µM. In addition, the IC50 in data set [3] is 100 to 1000 nM.

The values are drawn from patent publication US20100152213A1, “COMPOUND THAT IS A DUAL INHIBITOR OF ENZYMES PDE7 AND/OR PDE4, PHARMACEUTICAL COMPOSITIONS AND USES THEREOF” (priority 2007, published 2010).
